Reference: article PMC7252619 (PLoS ONE, 2020)
Where “and” joins values, the source holds several entries; their conditions need not be identical. Identical values can stand only once. Like-named read-outs stand apart in the source and are kept apart here.

Key:
Assay in all cases: Kinase activity test (ReactionBiology), % enzyme activity relative to DMSO
Type in all cases: biochemical
MST-4 = biological target: T1, MST-4 (Homo sapiens, UniProt Q9P289); settings: for % Enzyme Activity (relative to DMSO controls), Average / % Enzyme Activity (relative to DMSO controls), Data 1 / % Enzyme Activity (relative to DMSO controls), Data 2: MST4; for % Enzyme Activity (relative to DMSO controls), Data 1: replicate Data 1; for % Enzyme Activity (relative to DMSO controls), Data 2: replicate Data 2;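 for all read-outs here: marketed FDA-approved drugs screened at 10 µM and 1 µM against a ten-kinase panel, remaining activity given as percent of DMSO controls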
T1 construct: purchased ReactionBiology

NEK2 = biological target: T2, NEK2 (Homo sapiens, UniProt P51955); settings: NEK2;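 note: FDA-approved drugs chosen by structure-based repositioning, each screened at 10 or 1 µM for kinase activity, expressed as percent of DMSO controls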
T2 construct: purchased ReactionBiology
T2 sequence (P51955 1-445): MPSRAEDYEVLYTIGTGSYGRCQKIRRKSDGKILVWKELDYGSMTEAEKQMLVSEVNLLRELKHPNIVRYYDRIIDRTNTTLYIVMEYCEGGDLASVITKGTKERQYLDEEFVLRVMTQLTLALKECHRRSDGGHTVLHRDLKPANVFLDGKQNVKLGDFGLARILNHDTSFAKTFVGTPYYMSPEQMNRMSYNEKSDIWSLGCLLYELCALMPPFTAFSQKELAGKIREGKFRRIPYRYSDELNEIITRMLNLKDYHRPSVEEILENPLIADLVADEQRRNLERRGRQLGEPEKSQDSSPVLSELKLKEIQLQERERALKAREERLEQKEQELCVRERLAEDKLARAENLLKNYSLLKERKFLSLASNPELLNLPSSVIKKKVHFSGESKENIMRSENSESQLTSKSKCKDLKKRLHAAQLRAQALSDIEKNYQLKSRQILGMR

DAPK1 = biological target: T3, DAPK1 (Homo sapiens, UniProt P53355); settings: for remaining activity at 1 µM / remaining activity at 10 µM: DAPK1
T3 construct: purchased ReactionBiology

CK1d = biological target: T4, CK1d (Homo sapiens, UniProt P48730); settings: CK1d
T4 construct: purchased ReactionBiology

EPHB4 = biological target: T5, EPHB4 (Homo sapiens, UniProt P54760); settings: EPHB4;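 note: EPHB4 was one of ten selected kinases in the screening panel, with enzyme activity expressed as a percentage of DMSO controls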
T5 construct: purchased ReactionBiology
T5 sequence (P54760 16-987): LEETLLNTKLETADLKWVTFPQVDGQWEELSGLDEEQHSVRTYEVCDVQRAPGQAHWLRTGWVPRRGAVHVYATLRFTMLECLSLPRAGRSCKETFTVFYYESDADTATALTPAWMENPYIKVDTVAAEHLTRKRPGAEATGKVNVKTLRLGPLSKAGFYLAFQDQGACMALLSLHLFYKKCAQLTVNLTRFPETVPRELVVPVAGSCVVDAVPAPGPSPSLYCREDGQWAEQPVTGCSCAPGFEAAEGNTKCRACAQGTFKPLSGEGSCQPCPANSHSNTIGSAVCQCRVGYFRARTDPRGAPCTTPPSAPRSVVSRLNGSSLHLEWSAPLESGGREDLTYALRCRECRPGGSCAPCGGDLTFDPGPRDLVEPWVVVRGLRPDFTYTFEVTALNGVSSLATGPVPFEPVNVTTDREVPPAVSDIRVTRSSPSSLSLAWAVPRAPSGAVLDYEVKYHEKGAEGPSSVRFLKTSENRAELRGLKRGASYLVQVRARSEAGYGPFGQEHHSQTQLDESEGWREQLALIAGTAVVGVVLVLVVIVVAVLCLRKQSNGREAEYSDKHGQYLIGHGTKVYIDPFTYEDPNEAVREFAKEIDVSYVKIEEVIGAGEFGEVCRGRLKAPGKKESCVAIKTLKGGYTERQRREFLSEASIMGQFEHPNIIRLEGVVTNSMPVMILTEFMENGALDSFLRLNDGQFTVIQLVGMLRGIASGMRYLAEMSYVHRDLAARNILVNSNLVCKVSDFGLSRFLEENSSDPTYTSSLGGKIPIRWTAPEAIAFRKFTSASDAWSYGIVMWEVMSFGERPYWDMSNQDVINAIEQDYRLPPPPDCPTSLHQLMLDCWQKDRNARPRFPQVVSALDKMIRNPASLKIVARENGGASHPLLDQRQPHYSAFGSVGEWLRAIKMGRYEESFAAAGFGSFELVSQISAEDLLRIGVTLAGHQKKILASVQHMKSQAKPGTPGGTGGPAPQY

VEGFR2 = VEGFR2 (Homo sapiens, UniProt P35968); parameters: purchased ReactionBiology; settings: VEGFR2;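 note: VEGFR2 was one member of a ten-kinase screening panel testing marketed FDA-approved drugs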
[1] = read-out: % Enzyme Activity (relative to DMSO controls), Average
[2] = read-out: % Enzyme Activity (relative to DMSO controls), Data 1
[3] = read-out: % Enzyme Activity (relative to DMSO controls), Data 2
[4] = 1 uM, Average, read-out: % Enzyme Activity (relative to DMSO controls), Average
[5] = 1 uM, replicate Data 1, read-out: % Enzyme Activity (relative to DMSO controls), Data 1
[6] = 1 uM, replicate Data 2, read-out: % Enzyme Activity (relative to DMSO controls), Data 2
[7] = 10 uM, Average, read-out: % Enzyme Activity (relative to DMSO controls), Average
[8] = 10 uM, replicate Data 1, read-out: % Enzyme Activity (relative to DMSO controls), Data 1
[9] = 10 uM, replicate Data 2, read-out: % Enzyme Activity (relative to DMSO controls), Data 2
[10] = Average, read-out: % Enzyme Activity (relative to DMSO controls), Average
[11] = replicate Data 1, read-out: % Enzyme Activity (relative to DMSO controls), Data 1
[12] = replicate Data 2, read-out: % Enzyme Activity (relative to DMSO controls), Data 2

T1 sequence (Q9P289 whole entry): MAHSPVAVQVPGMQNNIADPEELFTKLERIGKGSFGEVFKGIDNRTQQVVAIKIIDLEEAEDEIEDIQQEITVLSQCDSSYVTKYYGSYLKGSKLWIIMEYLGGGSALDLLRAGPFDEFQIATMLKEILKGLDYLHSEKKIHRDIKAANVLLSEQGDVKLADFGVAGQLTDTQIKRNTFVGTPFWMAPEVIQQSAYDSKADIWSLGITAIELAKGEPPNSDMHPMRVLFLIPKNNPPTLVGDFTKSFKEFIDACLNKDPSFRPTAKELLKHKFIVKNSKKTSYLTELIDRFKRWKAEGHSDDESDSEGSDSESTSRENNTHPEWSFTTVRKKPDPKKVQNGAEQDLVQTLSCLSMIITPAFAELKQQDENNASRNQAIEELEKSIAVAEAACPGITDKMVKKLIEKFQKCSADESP
T3 sequence (P53355 whole entry): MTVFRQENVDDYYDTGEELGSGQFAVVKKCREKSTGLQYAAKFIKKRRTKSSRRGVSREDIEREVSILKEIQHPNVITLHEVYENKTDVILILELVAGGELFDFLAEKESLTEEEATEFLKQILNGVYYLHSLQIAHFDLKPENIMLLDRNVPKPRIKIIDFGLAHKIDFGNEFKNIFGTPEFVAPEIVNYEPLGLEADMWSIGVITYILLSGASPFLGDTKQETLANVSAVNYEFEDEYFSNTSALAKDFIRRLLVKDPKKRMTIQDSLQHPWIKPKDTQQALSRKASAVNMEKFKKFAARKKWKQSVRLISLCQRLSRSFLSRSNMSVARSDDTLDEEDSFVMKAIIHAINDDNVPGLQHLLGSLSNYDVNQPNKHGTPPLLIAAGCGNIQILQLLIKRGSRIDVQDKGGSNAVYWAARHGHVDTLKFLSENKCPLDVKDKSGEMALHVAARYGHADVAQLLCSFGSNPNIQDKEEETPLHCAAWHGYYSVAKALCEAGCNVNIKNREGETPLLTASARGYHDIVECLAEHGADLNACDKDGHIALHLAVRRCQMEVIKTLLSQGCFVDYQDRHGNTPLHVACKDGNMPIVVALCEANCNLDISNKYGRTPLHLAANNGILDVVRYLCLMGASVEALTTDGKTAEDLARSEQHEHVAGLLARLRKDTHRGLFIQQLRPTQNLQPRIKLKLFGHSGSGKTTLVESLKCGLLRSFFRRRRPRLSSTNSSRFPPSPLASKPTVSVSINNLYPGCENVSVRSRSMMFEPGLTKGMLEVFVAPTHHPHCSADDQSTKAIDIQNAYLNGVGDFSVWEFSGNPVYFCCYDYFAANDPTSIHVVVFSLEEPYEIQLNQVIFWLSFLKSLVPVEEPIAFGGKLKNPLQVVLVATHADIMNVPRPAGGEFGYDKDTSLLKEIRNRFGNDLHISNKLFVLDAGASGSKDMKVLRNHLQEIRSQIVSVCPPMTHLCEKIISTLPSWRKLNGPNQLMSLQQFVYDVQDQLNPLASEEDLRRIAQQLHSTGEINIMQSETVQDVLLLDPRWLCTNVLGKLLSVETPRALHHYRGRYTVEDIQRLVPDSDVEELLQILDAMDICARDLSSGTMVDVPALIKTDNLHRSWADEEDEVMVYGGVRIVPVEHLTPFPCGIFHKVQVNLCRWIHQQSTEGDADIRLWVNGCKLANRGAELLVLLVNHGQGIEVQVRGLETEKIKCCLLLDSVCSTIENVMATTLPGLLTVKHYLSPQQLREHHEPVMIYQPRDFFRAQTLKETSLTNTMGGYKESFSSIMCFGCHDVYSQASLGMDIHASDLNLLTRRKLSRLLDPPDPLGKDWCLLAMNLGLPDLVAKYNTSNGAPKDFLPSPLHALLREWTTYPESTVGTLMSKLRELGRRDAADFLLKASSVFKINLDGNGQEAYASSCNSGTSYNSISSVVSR
Chain of VEGFR2 (P35968 20-1356): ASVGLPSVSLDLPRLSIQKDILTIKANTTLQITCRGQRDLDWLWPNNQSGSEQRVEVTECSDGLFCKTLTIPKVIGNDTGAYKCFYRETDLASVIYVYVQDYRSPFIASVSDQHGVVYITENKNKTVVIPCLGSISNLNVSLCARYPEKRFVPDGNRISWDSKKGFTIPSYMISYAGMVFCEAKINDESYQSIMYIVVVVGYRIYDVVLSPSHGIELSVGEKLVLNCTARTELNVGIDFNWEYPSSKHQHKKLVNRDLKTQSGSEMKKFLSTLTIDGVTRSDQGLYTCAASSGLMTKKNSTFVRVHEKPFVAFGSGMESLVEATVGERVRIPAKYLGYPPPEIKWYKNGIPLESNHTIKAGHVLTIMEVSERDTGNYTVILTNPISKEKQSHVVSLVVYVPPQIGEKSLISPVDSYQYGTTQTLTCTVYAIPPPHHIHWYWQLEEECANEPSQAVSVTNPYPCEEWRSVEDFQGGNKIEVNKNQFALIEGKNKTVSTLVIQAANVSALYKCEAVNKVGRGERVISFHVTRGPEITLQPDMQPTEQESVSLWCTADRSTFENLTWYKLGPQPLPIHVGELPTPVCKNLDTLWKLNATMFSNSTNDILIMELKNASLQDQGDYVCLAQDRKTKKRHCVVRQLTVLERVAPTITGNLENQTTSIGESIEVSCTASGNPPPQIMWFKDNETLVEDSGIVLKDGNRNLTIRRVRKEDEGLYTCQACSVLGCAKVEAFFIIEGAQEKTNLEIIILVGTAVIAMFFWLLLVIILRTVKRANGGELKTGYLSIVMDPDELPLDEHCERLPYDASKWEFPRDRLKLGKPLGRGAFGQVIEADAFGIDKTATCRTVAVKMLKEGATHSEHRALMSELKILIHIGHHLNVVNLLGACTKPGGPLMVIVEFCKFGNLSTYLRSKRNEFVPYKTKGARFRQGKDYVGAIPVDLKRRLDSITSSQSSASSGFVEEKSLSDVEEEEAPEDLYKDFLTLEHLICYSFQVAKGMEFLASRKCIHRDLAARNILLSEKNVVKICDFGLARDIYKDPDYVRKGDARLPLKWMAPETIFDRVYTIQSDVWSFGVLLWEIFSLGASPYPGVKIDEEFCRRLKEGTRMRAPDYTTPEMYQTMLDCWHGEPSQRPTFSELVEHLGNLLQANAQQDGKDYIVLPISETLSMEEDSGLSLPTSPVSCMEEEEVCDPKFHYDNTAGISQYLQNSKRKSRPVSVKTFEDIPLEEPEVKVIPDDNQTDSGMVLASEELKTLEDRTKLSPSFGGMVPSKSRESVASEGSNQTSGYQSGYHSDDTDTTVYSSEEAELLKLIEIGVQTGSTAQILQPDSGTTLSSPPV
T4 sequence (P48730 whole entry): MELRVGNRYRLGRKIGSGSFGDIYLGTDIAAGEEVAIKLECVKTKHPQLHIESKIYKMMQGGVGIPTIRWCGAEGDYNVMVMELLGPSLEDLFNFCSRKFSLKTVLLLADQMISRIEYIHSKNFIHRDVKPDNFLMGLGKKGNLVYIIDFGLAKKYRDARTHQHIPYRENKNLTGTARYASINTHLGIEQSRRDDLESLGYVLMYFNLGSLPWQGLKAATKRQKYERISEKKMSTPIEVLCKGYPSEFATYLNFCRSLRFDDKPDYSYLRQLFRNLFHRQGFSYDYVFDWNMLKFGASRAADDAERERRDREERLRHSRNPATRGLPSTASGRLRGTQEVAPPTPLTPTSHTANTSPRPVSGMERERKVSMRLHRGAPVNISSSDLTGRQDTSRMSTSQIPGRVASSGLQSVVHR

## O=P(O)(O)C(O)(Cc1cnc2ccccn12)P(=O)(O)O [Minodronic acid]
MST-4; [1]
  remaining activity at 1 µM: 95.6%
  remaining activity at 10 µM: 81.5%
MST-4; [2]
  remaining activity at 1 µM: 84.5%
  remaining activity at 10 µM: 83.7%
MST-4; [3]
  remaining activity at 1 µM: 107%
  remaining activity at 10 µM: 79.3%

## Cc1cccc(C)c1OCC(=O)N[C@@H](Cc1ccccc1)[C@@H](O)C[C@H](Cc1ccccc1)NC(=O)[C@H](C(C)C)N1CCCNC1=O [Lopinavir, reference compound]
NEK2; [4]
  remaining activity at 1 µM: 116%
NEK2; [5]
  remaining activity at 1 µM: 118%
NEK2; [6]
  remaining activity at 1 µM: 115%
NEK2; [7]
  remaining activity at 10 µM: 88.7%
NEK2; [8]
  remaining activity at 10 µM: 98.3%
NEK2; [9]
  remaining activity at 10 µM: 79.2%
DAPK1; [4]
  remaining activity at 1 µM: 90.4%
DAPK1; [5]
  remaining activity at 1 µM: 87.6%
DAPK1; [6]
  remaining activity at 1 µM: 93.2%
DAPK1; [7]
  remaining activity at 10 µM: 49.9%
DAPK1; [8]
  remaining activity at 10 µM: 47.2%
DAPK1; [9]
  remaining activity at 10 µM: 52.5%
DAPK1; compound 1μM, relative to DMSO controls, read-out: % Enzyme activity at 1μM
  remaining activity at 1 µM: 90.4%
DAPK1; compound 10μM, relative to DMSO controls, read-out: % Enzyme activity at 10μM
  remaining activity at 10 µM: 49.9%
CK1d; [10]
  remaining activity at 1 µM: 107%
  remaining activity at 10 µM: 109%
CK1d; [11]
  remaining activity at 1 µM: 111%
  remaining activity at 10 µM: 113%
CK1d; [12]
  remaining activity at 1 µM: 102%
  remaining activity at 10 µM: 105%
EPHB4; [10]
  remaining activity at 1 µM: 92.6%
  remaining activity at 10 µM: 87.3%
EPHB4; [11]
  remaining activity at 1 µM: 95.6%
  remaining activity at 10 µM: 89%
EPHB4; [12]
  remaining activity at 1 µM: 89.7%
  remaining activity at 10 µM: 85.7%
VEGFR2; [4]
  remaining activity at 1 µM: 104%
VEGFR2; [5]
  remaining activity at 1 µM: 106%
VEGFR2; [6]
  remaining activity at 1 µM: 103%
VEGFR2; [7]
  remaining activity at 10 µM: 99%
VEGFR2; [8]
  remaining activity at 10 µM: 103%
VEGFR2; [9]
  remaining activity at 10 µM: 95%

## C[C@H](O)[C@H](O)[C@H]1CNc2nc(N)[nH]c(=O)c2N1 [Sapropterin]
NEK2; 1 uM, Average
  % Enzyme Activity (relative to DMSO controls), Average: 93.31%
NEK2; 1 uM, replicate Data 1
  % Enzyme Activity (relative to DMSO controls), Data 1: 92.46%
NEK2; 1 uM, replicate Data 2
  % Enzyme Activity (relative to DMSO controls), Data 2: 94.15%
NEK2; 10 uM, Average
  % Enzyme Activity (relative to DMSO controls), Average: 93.52%
NEK2; 10 uM, replicate Data 1
  % Enzyme Activity (relative to DMSO controls), Data 1: 92.39%
NEK2; 10 uM, replicate Data 2
  % Enzyme Activity (relative to DMSO controls), Data 2: 94.64%
MST-4; 1 uM
  % Enzyme Activity (relative to DMSO controls), Average: 87.71%
  % Enzyme Activity (relative to DMSO controls), Data 1: 88.88%
  % Enzyme Activity (relative to DMSO controls), Data 2: 86.54%
MST-4; 10 uM
  % Enzyme Activity (relative to DMSO controls), Average: 87.19%
  % Enzyme Activity (relative to DMSO controls), Data 1: 96.6%
  % Enzyme Activity (relative to DMSO controls), Data 2: 77.78%
VEGFR2; 1 uM, Average
  % Enzyme Activity (relative to DMSO controls), Average: 98.99%
VEGFR2; 1 uM, replicate Data 1
  % Enzyme Activity (relative to DMSO controls), Data 1: 101.37%
VEGFR2; 1 uM, replicate Data 2
  % Enzyme Activity (relative to DMSO controls), Data 2: 96.61%
VEGFR2; 10 uM, Average
  % Enzyme Activity (relative to DMSO controls), Average: 98.14%
VEGFR2; 10 uM, replicate Data 1
  % Enzyme Activity (relative to DMSO controls), Data 1: 98.48%
VEGFR2; 10 uM, replicate Data 2
  % Enzyme Activity (relative to DMSO controls), Data 2: 97.79%

## O=C(O)c1ccccc1O [Salicylic acid]
NEK2; [4]
  remaining activity at 1 µM: 88.2%
NEK2; [5]
  remaining activity at 1 µM: 88.1%
NEK2; [6]
  remaining activity at 1 µM: 88.3%
NEK2; [7]
  remaining activity at 10 µM: 102%
NEK2; [8]
  remaining activity at 10 µM: 93.8%
NEK2; [9]
  remaining activity at 10 µM: 109%
CK1d; [10]
  remaining activity at 1 µM: 105%
  remaining activity at 10 µM: 109%
CK1d; [11]
  remaining activity at 1 µM: 107%
  remaining activity at 10 µM: 109%
CK1d; [12]
  remaining activity at 1 µM: 103%
  remaining activity at 10 µM: 110%
EPHB4; [10]
  remaining activity at 1 µM: 101%
  remaining activity at 10 µM: 93.4%
EPHB4; [11]
  remaining activity at 1 µM: 99.4%
  remaining activity at 10 µM: 93%
EPHB4; [12]
  remaining activity at 1 µM: 102%
  remaining activity at 10 µM: 93.8%
VEGFR2; [4]
  remaining activity at 1 µM: 96.6%
VEGFR2; [5]
  remaining activity at 1 µM: 94.4%
VEGFR2; [6]
  remaining activity at 1 µM: 98.7%
VEGFR2; [7]
  remaining activity at 10 µM: 101%
VEGFR2; [8]
  remaining activity at 10 µM: 103%
VEGFR2; [9]
  remaining activity at 10 µM: 99.4%

## Oc1ccc(O)cc1 [Hydroquinone]
DAPK1
  % Enzyme Activity (relative to DMSO controls), Average: 106.84% and 99.20%
  % Enzyme Activity (relative to DMSO controls), Data 1: 112.42% and 95.43%
  % Enzyme Activity (relative to DMSO controls), Data 2: 101.25% and 102.97%
MST-4; 1 uM
  % Enzyme Activity (relative to DMSO controls), Average: 86.76%
  % Enzyme Activity (relative to DMSO controls), Data 1: 90.83%
  % Enzyme Activity (relative to DMSO controls), Data 2: 82.69%
MST-4; 10 uM
  % Enzyme Activity (relative to DMSO controls), Average: 89.91%
  % Enzyme Activity (relative to DMSO controls), Data 1: 90.73%
  % Enzyme Activity (relative to DMSO controls), Data 2: 89.08%
VEGFR2; 1 uM, Average
  % Enzyme Activity (relative to DMSO controls), Average: 108.33%
VEGFR2; 1 uM, replicate Data 1
  % Enzyme Activity (relative to DMSO controls), Data 1: 107.95%
VEGFR2; 1 uM, replicate Data 2
  % Enzyme Activity (relative to DMSO controls), Data 2: 108.7%
VEGFR2; 10 uM, Average
  % Enzyme Activity (relative to DMSO controls), Average: 108.92%
VEGFR2; 10 uM, replicate Data 1
  % Enzyme Activity (relative to DMSO controls), Data 1: 109.26%
VEGFR2; 10 uM, replicate Data 2
  % Enzyme Activity (relative to DMSO controls), Data 2: 108.57%

## O=C(CCCCCCC(=O)Nc1ccccc1)NO [Vorinostat]
MST-4; 1 uM
  % Enzyme Activity (relative to DMSO controls), Average: 61.30%
  % Enzyme Activity (relative to DMSO controls), Data 1: 64.87%
  % Enzyme Activity (relative to DMSO controls), Data 2: 57.73%
MST-4; 10 uM
  % Enzyme Activity (relative to DMSO controls), Average: 101.79%
  % Enzyme Activity (relative to DMSO controls), Data 1: 93.77%
  % Enzyme Activity (relative to DMSO controls), Data 2: 109.8%
